Data: US20240382432A1, “SINGLE CHAIN VARIABLE FRAGMENT (SCFV) MODIFIED LIPID NANOPARTICLE COMPOSITIONS AND USES THEREOF” (Generation Bio Co., priority 2021, published 2024)

Assays:
HER2 receptor [1] = assay: HER2 scFv binding in cell-based assay (Alexa-fluor 488 labeled scFv); design: species or system human
Experimental: (§1) As proof of concept, HER2 scFv binding and internalization in cell-based assays in vitro was carried out.

HER2 receptor [2] = assay: HER2 scFv ligand internalization in cell-based assay (pHrhodo label); design: species or system human; settings: MCF7 HER2- cell line; FIG. 1F
Experimental: as §1

HER2 receptor [3] = target: T1, HER2 receptor (Homo sapiens, UniProt P04626); assay: as above
T1 construct: endogenous in cells; host or cells: Sk-BR3, Sk-OV3 (HER2+); MCF7 (HER2-, negative control)
Experimental: as §1

ligand internalization (HER2 receptor [3]; Sk-BR3 cells (HER2+), FIG. 1D): showed ligand internalization
ligand internalization (HER2 receptor [3]; Sk-OV3 cells (HER2+), FIG. 1E): showed ligand internalization
Substance: trastuzumab-derived α-HER2 scFv: trastuzumab-derived single-chain variable fragment directed against HER2 (SEQ ID NO:1 core sequence)
HER2 receptor engagement (HER2 receptor [1]; MCF7 cells, do not express HER2 receptor (HER2-), FIG. 1C): not in MCF7 cells
HER2 receptor engagement (HER2 receptor [1]; Sk-BR3 HER2 expressing (HER2+) cell line, FIG. 1A): HER2 receptor engagement
HER2 receptor engagement (HER2 receptor [1]; Sk-OV3 HER2 expressing (HER2+) cell line, FIG. 1B): HER2 receptor engagement
ligand internalization (HER2 receptor [2]): did not
